Publication PMC9743428 (ACS Medicinal Chemistry Letters, 2022)
Each block holds one molecule with its values, some of them ahead of it.

Tests used:
FFAR1 = FFAR1 (Homo sapiens, UniProt O14842); assay: IP accumulation assay in transiently transfected COS7 cells, FFAR1; assay type: cell-based; conditions: for improved potency on FFAR1: as compared to the unsubstituted phenyl 54; for improved potency on FFAR1 / reduction of potency on FFAR1: range for the group
FFAR4 = target: T1, FFAR4 (Homo sapiens, UniProt Q5NUL3); assay: IP accumulation assay in transiently transfected COS7 cells, FFAR4; assay type: cell-based
T1 sequence (Q5NUL3 1-361): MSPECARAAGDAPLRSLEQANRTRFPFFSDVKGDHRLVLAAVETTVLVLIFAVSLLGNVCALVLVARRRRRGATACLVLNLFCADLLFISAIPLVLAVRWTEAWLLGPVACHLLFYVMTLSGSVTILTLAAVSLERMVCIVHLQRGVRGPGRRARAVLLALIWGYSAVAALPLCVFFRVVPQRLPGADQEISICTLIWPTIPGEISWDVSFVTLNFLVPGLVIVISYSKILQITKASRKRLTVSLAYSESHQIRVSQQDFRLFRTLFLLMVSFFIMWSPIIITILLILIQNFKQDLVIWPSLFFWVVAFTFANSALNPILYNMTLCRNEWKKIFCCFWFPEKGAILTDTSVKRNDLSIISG

[1] = system: FFAR1 mutants (Y12, E65, A66, K259, L262); assay: Mutagenesis of the extracellular binding site, IP accumulation; assay type: cell-based, human
FFAR1 A83F = FFAR1 A83F (Homo sapiens, UniProt O14842, A83F); assay: Mutagenesis, IP accumulation, FFAR1 A83F mutant; assay type: cell-based
FFAR1 K259A = assay: Mutagenesis, IP accumulation, FFAR1 K259A mutant; assay type: cell-based, human

Chain of FFAR1 (O14842 whole entry): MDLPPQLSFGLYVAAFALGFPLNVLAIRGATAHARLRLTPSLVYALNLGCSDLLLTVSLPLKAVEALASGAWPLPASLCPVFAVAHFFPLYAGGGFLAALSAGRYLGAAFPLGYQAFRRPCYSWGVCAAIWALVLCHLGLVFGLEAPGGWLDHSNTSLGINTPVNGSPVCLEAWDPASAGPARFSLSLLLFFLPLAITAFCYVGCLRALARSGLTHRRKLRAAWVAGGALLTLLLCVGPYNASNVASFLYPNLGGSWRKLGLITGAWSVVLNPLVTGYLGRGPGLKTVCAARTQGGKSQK
Chain of FFAR1 A83F (O14842 whole entry A83F): as the sequence (O14842 whole entry) above, with A83F counted along it

SMILES: Cc1cc(=O)oc2cc(OCc3nc(N)nc(Nc4cccc(O)c4)n3)ccc12 [compound 17]
activity on FFAR1 (FFAR1): inactive

SMILES: Cc1cc(OCc2nc(N)nc(NCCc3ccccc3N3CCOCC3)n2)cc(N2CCCC2=O)c1 [compound 74]
activity on FFAR1 (FFAR1): entirely inactive
selectivity for FFAR4 over FFAR1 (FFAR4): FFAR4-selective

SMILES: Cc1cc(=O)oc2cc(OCc3nc(N)nc(Nc4ccc(C5CC5)cc4)n3)ccc12 [compound 7]
activity on FFAR4 (FFAR4): entirely inactive on FFAR4

SMILES: Cc1cc(OCc2nc(N)nc(NC3(Cc4cccc(Cl)c4)CC3)n2)cc(N2CCCC2=O)c1 [compound 92]
activity on FFAR4 (FFAR4): loss of activity on FFAR4

SMILES: Cc1cc(OCc2nc(N)nc(NCCc3cc(Cl)ccc3Cl)n2)cc(N2CCCC2=O)c1 [compound 83]
effect of extracellular-site mutations on activity [1]: profound effect

SMILES: Cc1ccc(Nc2nc(N)nc(COc3ccc4c(C)cc(=O)oc4c3)n2)cc1C [compound 13]
activity on FFAR4 (FFAR4): entirely inactive on FFAR4

SMILES: Cc1cc(OCc2nc(N)nc(NCC3(c4cccc(Cl)c4)CC3)n2)cc(N2CCCC2=O)c1 [compound 90]
activity on FFAR4 (FFAR4): loss of activity on FFAR4

SMILES: Cc1ccc(Nc2nc(N)nc(COc3cc(N4CCCC4=O)cc(C(F)(F)F)c3)n2)cc1Cl [compound 38]
selectivity for FFAR1 over FFAR4 (FFAR1): selective

SMILES: Cc1cc(OCc2nc(N)nc(NCCc3cccc4c3OC(F)(F)O4)n2)cc(N2CCCC2=O)c1 [compound 101]
selectivity for FFAR1 over FFAR4 (FFAR1): highly FFAR1-selective

SMILES: COc1ccc(F)c(-c2ccc(COc3ccc4c(c3)[C@]3(CC4)C[C@H]3C(=O)O)cc2[C@@H]2CCCC2(C)C)c1 [AM-5262]
effect of extracellular-site mutations on activity [1]: no effect on compound potency
impact of A83F mutation on activity (FFAR1 A83F): none
change in efficacy, K259A versus wild-type (FFAR1 K259A): −32%

SMILES: Cc1cc(=O)oc2cc(OCc3nc(N)nc(Nc4ccc(O)cc4)n3)ccc12 [compound 18]
activity on FFAR1 (FFAR1): inactive

SMILES: Cc1cc(OCc2nc(N)nc(NCC(c3cccc(Cl)c3)N3CCCC3)n2)cc(N2CCCC2=O)c1 (centres unmarked) [compound 94]
activity on FFAR4 (FFAR4): loss of activity on FFAR4

SMILES: Cc1ccc(Nc2nc(N)nc(COc3cc(OC(F)(F)F)cc(N4CCCC4=O)c3)n2)cc1Cl [compound 46]
selectivity for FFAR4 over FFAR1 (FFAR4): selective

SMILES: Cc1cc(OCc2nc(N)nc(NCC(c3c(F)cccc3F)N(C)C)n2)cc(N2CCCC2=O)c1 (centres unmarked) [compound 93]
activity on FFAR4 (FFAR4): loss of activity on FFAR4

SMILES: Cc1ccc(Nc2nc(N)nc(COc3cc(Cl)cc(N4CCCC4=O)c3)n2)cc1Cl [compound 42]
gain of potency on FFAR1 (FFAR1; versus compound 28): 5 fold

SMILES: Cc1ccc(Nc2nc(N)nc(COc3cccc(N4CCCC4=O)c3)n2)cc1Cl [compound 28]
loss of potency on FFAR1 (FFAR1; versus 4-methylchroman-2-one compound 11): ~6 fold

Results, then the molecule that gave them:

loss of efficacy on FFAR1 (FFAR1; versus compound 54): −26%
SMILES: Cc1cc(OCc2nc(N)nc(NCCc3cc(F)ccc3F)n2)cc(N2CCCC2=O)c1 [compound 75]

improved potency on FFAR1 (FFAR1): 2–8 fold
SMILES: COc1cccc(CCNc2nc(N)nc(COc3cc(C)cc(N4CCCC4=O)c3)n2)c1 [compound 60]

improved potency on FFAR1 (FFAR1): 2–8 fold
SMILES: Cc1cccc(CCNc2nc(N)nc(COc3cc(C)cc(N4CCCC4=O)c3)n2)c1 [compound 59]

improved potency on FFAR1 (FFAR1): 2–8 fold
SMILES: Cc1cc(OCc2nc(N)nc(NCCc3cccc(OC(F)F)c3)n2)cc(N2CCCC2=O)c1 [compound 62]

reduction of potency on FFAR1 (FFAR1; versus compound 54): 2−3 fold
SMILES: Cc1cc(OCc2nc(N)nc(NCCc3ccc(Cl)cc3Cl)n2)cc(N2CCCC2=O)c1 [compound 84]

selectivity for FFAR1 over FFAR4 (FFAR1): highly selective for FFAR1
SMILES: Cc1cc(OCc2nc(N)nc(NCCc3cc(C)ccc3F)n2)cc(N2CCCC2=O)c1 [compound 76]

selectivity for FFAR1 over FFAR4 (FFAR1): highly selective for FFAR1
SMILES: Cc1cc(OCc2nc(N)nc(NCCc3ccccc3F)n2)cc(N2CCCC2=O)c1 [compound 70]

increase of efficacy on FFAR1 (FFAR1; as compared to compound 43): 44%
SMILES: Cc1cc(OCc2nc(N)nc(NCCc3ccccc3)n2)cc(N2CCCC2=O)c1 [compound 54]

reduction of potency on FFAR1 (FFAR1; versus compound 54): 2−3 fold
SMILES: COc1ccc(Cl)cc1CCNc1nc(N)nc(COc2cc(C)cc(N3CCCC3=O)c2)n1 [compound 86]

improved potency on FFAR1 (FFAR1): 2–8 fold
SMILES: Cc1cc(OCc2nc(N)nc(NCCc3cccc(Cl)c3)n2)cc(N2CCCC2=O)c1 [compound 58]

reduction of potency on FFAR1 (FFAR1; versus compound 54): 2−3 fold
SMILES: Cc1cc(OCc2nc(N)nc(NCCc3ccc(C)cc3C)n2)cc(N2CCCC2=O)c1 [compound 85]

reduction of potency on FFAR1 (FFAR1; versus compound 54): 2−3 fold
SMILES: Cc1cc(OCc2nc(N)nc(NCCc3c(C)cccc3C)n2)cc(N2CCCC2=O)c1 [compound 87]

improved potency on FFAR1 (FFAR1): 2–8 fold
SMILES: Cc1cc(OCc2nc(N)nc(NCCc3cccc(C(F)(F)F)c3)n2)cc(N2CCCC2=O)c1 [compound 61]
